What was measured:
[1] = target: IDH1 R132H (Homo sapiens, UniProt O75874, R132H); assay: Assay for IDH1 R132H inhibitors (NADPH/aKG, resazurin detection); format: biochemical; conditions: enzyme assay of Example 12; read-out: IDH1R132H IC50
Procedure, shortened: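 Compound added to substrate mix (8 uM NADPH, 2 mM aKG), then enzyme mix (0.2 μg/ml IDH1 R132H); 50 min RT in 20 mM Tris pH 7.5, 150 mM NaCl, 10 mM MgCl2, 0.03% BSA. Resazurin detection mix (30 μM) 5 min RT; resorufin fluorescence Ex544/Em590.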

[2] = tested on: HT1080 cells; assay: Cellular assay for IDH1m inhibitors: inhibition of 2-HG production (LC-MS, 48 hours) in HT1080 cells; format: cell-based; conditions: Homo sapiens, HT-1080; inhibition of 2-HG production, HT1080 cells; read-out: HT1080 IC50
Procedure, shortened: (§1)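 Each cell line is plated at 5000 cells/well in DMEM with 10% FBS and left overnight at 37 °C. Test compounds are then added for 48 h, after which 2-HG in the medium is determined by LC-MS; IC50 reflects 50% reduction compared with control.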

[3] = tested on: U87MG cells; assay: Cellular assay for IDH1m inhibitors: inhibition of 2-HG production (LC-MS, 48 hours) in U87MG cells; format: cell-based; conditions: Homo sapiens, U-87 MG, inhibition of 2-HG production, U87R132H cells; read-out: U87R132H IC50
Procedure, shortened: as §1

Sequence of IDH1 R132H (O75874 whole entry R132H): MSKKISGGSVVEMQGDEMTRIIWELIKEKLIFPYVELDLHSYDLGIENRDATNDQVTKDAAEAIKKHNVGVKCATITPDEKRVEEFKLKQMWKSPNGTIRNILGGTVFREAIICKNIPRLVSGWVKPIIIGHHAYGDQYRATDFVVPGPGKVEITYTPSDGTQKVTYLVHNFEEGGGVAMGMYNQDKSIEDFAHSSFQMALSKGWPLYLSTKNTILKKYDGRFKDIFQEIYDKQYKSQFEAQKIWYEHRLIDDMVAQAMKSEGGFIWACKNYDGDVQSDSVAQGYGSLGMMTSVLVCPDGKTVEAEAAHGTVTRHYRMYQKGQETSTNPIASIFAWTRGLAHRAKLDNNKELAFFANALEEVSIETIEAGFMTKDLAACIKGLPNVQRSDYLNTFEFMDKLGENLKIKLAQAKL

Structure (SMILES)	IC50 [1]	IC50 [2]	IC50 [3]
COCCC(=O)N1CCN(c2nc(C3CC3)c(-c3ccc(N)cc3)cc2C#N)C[C@H]1C [Compound 383, (R)-5-(4-aminophenyl)-6-cyclopropyl-2-(4-(3-methoxypropanoyl)-3-methylpiperazin-1-yl)nicotinonitrile]	< 500 nM	1000 to 10000 nM	1000 to 10000 nM
COCCC(=O)N1CCN(c2nc(C3CC3)c(-c3ccc4c(c3)CC(=O)N4)cc2C#N)C[C@H]1C [Compound 384, (R)-6-cyclopropyl-2-(4-(3-methoxypropanoyl)-3-methylpiperazin-1-yl)-5-(2-oxoindolin-5-yl)nicotinonitrile]	< 500 nM	500 to 1000 nM	500 to 1000 nM
C[C@@H]1CN(c2nc(C3CC3)c(-c3cccc4cnccc34)cc2C#N)CCN1C(=O)CC(F)(F)F [Compound 386, (R)-6-cyclopropyl-5-(isoquinolin-5-yl)-2-(3-methyl-4-(3,3,3-trifluoropropanoyl)piperazin-1-yl)nicotinonitrile]	< 500 nM	1000 to 10000 nM	500 to 1000 nM
N#Cc1cc(-c2cccc3cnccc23)c(C2CC2)nc1N1CCN(C(=O)CC(F)(F)F)[C@H](C2CC2)C1 [Compound 387, (R)-6-cyclopropyl-2-(3-cyclopropyl-4-(3,3,3-trifluoropropanoyl)piperazin-1-yl)-5-(isoquinolin-5-yl)nicotinonitrile]	< 500 nM	< 500 nM	< 500 nM
COCCC(=O)N1CCN(c2nc(C3CC3)c(OC(C)c3ccncc3)cc2C#N)C[C@H]1C (stereo partly drawn) [Compound 388, 6-cyclopropyl-2-((R)-4-(3-methoxypropanoyl)-3-methylpiperazin-1-yl)-5-(1-(pyridin-4-yl)ethoxy)nicotinonitrile]	< 500 nM	1000 to 10000 nM	500 to 1000 nM
C=CC(=O)Nc1ccc(C(C)Oc2cc(C#N)c(N3CCN(C(=O)CCOC)[C@H](C)C3)nc2C2CC2)cc1 (stereo partly drawn) [Compound 389, N-(4-(1-(5-cyano-2-cyclopropyl-6-((R)-4-(3-methoxypropanoyl)-3-methylpiperazin-1-yl)pyridin-3-yloxy)ethyl)phenyl)acrylamide]	< 500 nM	< 500 nM	< 500 nM
C=Cc1cc(-c2cc(C#N)c(N3CCN(C(=O)CCOC)[C@H](C)C3)nc2C2CC2)ccn1 [Compound 390, (R)-2-cyclopropyl-6-(4-(3-methoxypropanoyl)-3-methylpiperazin-1-yl)-2′-vinyl-3,4′-bipyridine-5-carbonitrile]	< 500 nM	< 500 nM	< 500 nM
N#Cc1cc(-c2cccc3cnccc23)c(C2CC2)nc1N1CCN(C(=O)C2CC2)[C@H](C2CC2)C1 [Compound 391, (R)-2-(4-(cyclopropanecarbonyl)-3-cyclopropylpiperazin-1-yl)-6-cyclopropyl-5-(isoquinolin-5-yl)nicotinonitrile]	< 500 nM	500 to 1000 nM	500 to 1000 nM
COCCC(=O)N1CCN(c2nc(C3CC3)c(-c3ccc(S(N)(=O)=O)cc3)c(C)c2C#N)C[C@H]1C [Compound 393, (R)-4-{5-cyano-2-cyclopropyl-6-[4-(3-methoxy-propionyl)-3-methyl-piperazin-1-yl]-4-methyl-pyridin-3-yl}-benzenesulfonamide]	< 500 nM	1000 to 10000 nM	500 to 1000 nM
COCCC(=O)N1CCN(c2nc(C3CC3)c(-c3cccc4cnccc34)cc2C#N)CC1C(F)(F)F (stereo not drawn) [Compound 398, 6-cyclopropyl-5-(isoquinolin-5-yl)-2-(4-(3-methoxypropanoyl)-3-(trifluoromethyl)piperazin-1-yl)nicotinonitrile]	< 500 nM	1000 to 10000 nM	500 to 1000 nM
C/C=C/C(=O)Nc1cccc(COc2cc(C#N)c(N3CCN(C(=O)CCOC)[C@H](C)C3)nc2C2CC2)c1 [Compound 400, (R,E)-N-(3-((5-cyano-2-cyclopropyl-6-(4-(3-methoxypropanoyl)-3-methylpiperazin-1-yl)pyridin-3-yloxy)methyl)phenyl)but-2-enamide]	500 to 1000 nM	1000 to 10000 nM	1000 to 10000 nM
COCCC(=O)N1CCN(c2nc(C3CC3)c(-c3ccnc(Cl)c3)cc2C#N)C[C@H]1C [Compound 401, (R)-2′-chloro-2-cyclopropyl-6-(4-(3-methoxypropanoyl)-3-methylpiperazin-1-yl)-3,4′-bipyridine-5-carbonitrile]	500 to 1000 nM	1000 to 10000 nM	1000 to 10000 nM
COCCC(=O)N1CCN(c2nc(C3CC3)c(-c3cccc(NC(=O)CCl)c3)cc2C#N)C[C@H]1C [Compound 403, (R)-2-chloro-N-(3-(5-cyano-2-cyclopropyl-6-(4-(3-methoxypropanoyl)-3-methylpiperazin-1-yl)pyridin-3-yl)phenyl)acetamide]	< 500 nM	500 to 1000 nM	500 to 1000 nM
COCCC(=O)N1CCN(c2nc(C3CC3)c(-c3cccc(-c4cn[nH]c4)c3)cc2C#N)C[C@H]1C [Compound 406, (R)-6-cyclopropyl-2-[4-(3-methoxy-propionyl)-3-methyl-piperazin-1-yl]-5-[3-(1H-pyrazol-4-yl)-phenyl]-nicotinonitrile]	< 500 nM	1000 to 10000 nM	1000 to 10000 nM
C=CC(=O)Nc1cccc(C(C)Oc2cc(C#N)c(N3CCN(C(=O)CCOC)[C@H](C)C3)nc2C2CC2)c1 (stereo partly drawn) [Compound 407, N-(3-(1-(5-cyano-2-cyclopropyl-6-((R)-4-(3-methoxypropanoyl)-3-methylpiperazin-1-yl)pyridin-3-yloxy)ethyl)phenyl)acrylamide]	< 500 nM	< 500 nM	< 500 nM
COCCC(=O)N1CCN(c2nc(C3CC3)c(-c3cncc4ccccc34)c(C)c2C#N)C[C@H]1C [Compound 408, 6-cyclopropyl-5-(isoquinolin-4-yl)-2-((R)-4-(3-methoxypropanoyl)-3-methylpiperazin-1-yl)-4-methylnicotinonitrile]	< 500 nM	500 to 1000 nM	< 500 nM
COCCC(=O)N1CCN(c2nc(C3CC3)c(-c3cccc4cnccc34)cc2C#N)C[C@H]1C1CC1 [Compound 409, (R)-6-cyclopropyl-2-(3-cyclopropyl-4-(3-methoxypropanoyl)piperazin-1-yl)-5-(isoquinolin-5-yl)nicotinonitrile]	< 500 nM	< 500 nM	< 500 nM
COCCC(=O)N1CCN(c2nc(C3CC3)c(-c3cccc4cnccc34)c(C)c2C#N)C[C@H]1C [Compound 410, 6-cyclopropyl-5-(isoquinolin-5-yl)-2-((R)-4-(3-methoxypropanoyl)-3-methylpiperazin-1-yl)-4-methylnicotinonitrile]	< 500 nM	< 500 nM	< 500 nM
COCCC(=O)N1CCN(c2nc(C3CC3)c(-c3ccc(N)cc3)c(C)c2C#N)C[C@H]1C [Compound 411, (R)-5-(4-aminophenyl)-6-cyclopropyl-2-(4-(3-methoxypropanoyl)-3-methylpiperazin-1-yl)-4-methylnicotinonitrile]	< 500 nM	500 to 1000 nM	500 to 1000 nM
COCCC(=O)N1CCN(c2nc(C3CC3)c(-c3ccc(NC(C)=O)cc3)cc2C#N)C[C@H]1C [Compound 412, (R)—N-(4-(5-cyano-2-cyclopropyl-6-(4-(3-methoxypropanoyl)-3-methylpiperazin-1-yl)pyridin-3-yl)phenyl)acetamide]	< 500 nM	1000 to 10000 nM	500 to 1000 nM
C/C=C/C(=O)Nc1cccc(-c2cc(C#N)c(N3CCN(C(=O)CCOC)[C@H](C)C3)nc2C2CC2)c1 [Compound 415, (R,E)-N-(3-(5-cyano-2-cyclopropyl-6-(4-(3-methoxypropanoyl)-3-methylpiperazin-1-yl)pyridin-3-yl)phenyl)but-2-enamide]	< 500 nM	1000 to 10000 nM	1000 to 10000 nM
COCCC(=O)N1CCN(c2nc(C3CC3)c(-c3cccc(NC(=O)C(C)=O)c3)cc2C#N)C[C@H]1C [Compound 416, (R)—N-(3-(5-cyano-2-cyclopropyl-6-(4-(3-methoxypropanoyl)-3-methylpiperazin-1-yl)pyridin-3-yl)phenyl)-2-oxopropanamide]	500 to 1000 nM	1000 to 10000 nM	500 to 1000 nM
COCCC(=O)N1CCN(c2nc(C3CC3)c(-c3ccc4nc(N)sc4c3)cc2C#N)C[C@H]1C [Compound 417, (R)-5-(2-amino-benzothiazol-6-yl)-6-cyclopropyl-2-[4-(3-methoxy-propionyl)-3-methyl-piperazin-1-yl]-nicotinonitrile]	< 500 nM	< 500 nM	< 500 nM
COCCC(=O)N1CCN(c2nc(C3CC3)c(-c3cn(C)c(=O)c4ccccc34)cc2C#N)C[C@H]1C [Compound 418, (R)-6-cyclopropyl-2-[4-(3-methoxy-propionyl)-3-methyl-piperazin-1-yl]-5-(2-methyl-1-oxo-1,2-dihydro-isoquinolin-4-yl)-nicotinonitrile]	< 500 nM	< 500 nM	< 500 nM
COCCC(=O)N1CCN(c2nc(C3CC3)c(-c3cccc4c[n+]([O-])ccc34)cc2C#N)C[C@H]1C [Compound 420, (R)-5-(5-cyano-2-cyclopropyl-6-(4-(3-methoxypropanoyl)-3-methylpiperazin-1-yl)pyridin-3-yl)isoquinoline 2-oxide]	< 500 nM	1000 to 10000 nM	1000 to 10000 nM

Source: US9856279B2 (AGIOS PHARMACEUTICALS, INC, priority 2011, dated 2018)
